Literature values in article PMC10046020, “In Silico Screening and Optimization of Cell-Penetrating Peptides Using Deep Learning Methods” (Biomolecules, 2023).
Where two headings read alike, the source gives them in different places.

Settings: cited from earlier work; for class (CPP / Non-CPP), Train Set: Spreadsheet S2: peptides collected from CellPPD
Source text: Supplement biomolecules-13-00522-s001.zip/biomolecules-2162660_Supplementary Spreadsheets S1 Test Set.csv, table | column: class || Supplement biomolecules-13-00522-s001.zip/biomolecules-2162660_Supplementary Spreadsheets S2 Train Set.csv, table | column: class

[1] = Spreadsheet S1: 150 CPP and 150 non-CPP peptides collected from CellPPD, MLCPP, CPPsite 2.0, Lifetein and other publications
[2] = MLCPP, CPPsite 2.0, Lifetein and other publications

Row | Substance | class (CPP / Non-CPP), Test Set [1] | also measured
1 | GMNCSREYAHCTSAYV | Non-CPP | 
2 | KKLSECLKRIGDELDN | Non-CPP | 
3 | ACRGRGRGCGSGSGSCG | CPP | 
4 | CCTGRKKRRQRRR | CPP | 
5 | TERQIKIWFQNRCMK | Non-CPP | 
6 | GIVEQCCDTPCSLYDPENYCN | Non-CPP | 
7 | LILIGRRRRRRRRGC | CPP | 
8 | RRRRRRRRK |  | class (CPP / Non-CPP), Test Set: CPP
9 | NYQWRCKNQN |  | class (CPP / Non-CPP), Test Set: CPP
10 | CREKAKKLFKKILKKL | CPP | 
11 | MIRIAALNASSTIEDDHEGSFKSHKIQTKEAQEAE | Non-CPP | 
12 | GCCSHPACNVNNPHICG | Non-CPP | 
13 | LVVLGKLYGRKKRRQRRR | CPP | 
14 | GWTLNSAGYLLEPHAI | Non-CPP | 
15 | CSKSSDYQC |  | class (CPP / Non-CPP), Test Set: CPP
16 | KKLALHALHLLALLWLHLAHLALKK | CPP | 
17 | KLALKLACKALKAA | Non-CPP | 
18 | QEHDYGNLDLCN |  | class (CPP / Non-CPP), Test Set: Non-CPP
19 | HGWEIHGLLHRA |  | class (CPP / Non-CPP), Test Set: CPP
20 | EILLPNNYNAYESYKYPGMFIALSK | Non-CPP | 
21 | APKRKSGVSK | CPP | 
22 | TAAGDARANAVAKAGLHDLNIETDTERNH | Non-CPP | 
23 | MLPRLICINDYEQHAKSVLPKSIYDYYRSGANDEE | Non-CPP | 
24 | FTFGGGYVYFEEYAY | Non-CPP | 
25 | HHHHHHHHH |  | class (CPP / Non-CPP), Test Set: CPP

Row | Substance | class (CPP / Non-CPP), Test Set [1] | also measured
26 | LIKRKRLI |  | class (CPP / Non-CPP), Test Set: Non-CPP
27 | RFTFHFRFEFTFHFE | CPP | 
28 | PVVHLTLRQEGDDFSR | Non-CPP | 
29 | RRRRRRRGGIYLATALAKWALKQ |  | class (CPP / Non-CPP), Train Set [2]: CPP
30 | AITFYPFAPNQITCIHE | Non-CPP | 
31 | CYFQNCPRG |  | class (CPP / Non-CPP), Test Set: Non-CPP
32 | HGVSGHGQHGVHG |  | class (CPP / Non-CPP), Test Set: Non-CPP
33 | AVNANFGWQDKRFSTFG | Non-CPP | 
34 | FKCRRWQWRMKKLG | CPP | 
35 | YGRKKRRQRRRYGRKKRRQRRR | CPP | 
36 | RRRRRRRGGIYLATALAKWALKQGF |  | class (CPP / Non-CPP), Train Set [2]: CPP
37 | CLGSGEQCVRDTSCCSMSCTNNICF | Non-CPP | 
38 | TRQARRNRRRWRERQR | CPP | 
39 | LELELELELELELELELELE | CPP | 
40 | RRRRRRRRRETWWETWWTEW | CPP | 
41 | EILLPNSYNAYESYKYPGMFIALSK | Non-CPP | 
42 | RKGWFKAMKSIAKFIAKEKLKEHL | CPP | 
43 | SRISNRLSSSATRT | Non-CPP | 
44 | FITKALGISYGRKWRRQC | Non-CPP | 
45 | MPVMFYFSARNEVALVLVYFNFMIMMMH | Non-CPP | 
46 | FVPIFTHSELQKIREKERNKGQ | Non-CPP | 
47 | QGARNYKCCFAWC |  | class (CPP / Non-CPP), Test Set: Non-CPP
48 | CAETCIYIPCFTEAVGCKCKDKVCYKN | Non-CPP | 
49 | RQIKIWFQNRRMKWKKC | CPP | 
50 | RRLRHLRHHYRRRWHRFR | CPP | 

Row | Substance | class (CPP / Non-CPP), Test Set [1] | also measured
51 | PKKGSKKAVTKAQKKDGA | CPP | 
52 | RRLTLRQLLGLGSRRRRRSR | CPP | 
53 | IAARIKLRSRQYIKLRHL | Non-CPP | 
54 | FLGALFKVASKVLPSVFCAITKKC | Non-CPP | 
55 | FKMHEN |  | class (CPP / Non-CPP), Test Set: Non-CPP
56 | HATKSQNINF |  | class (CPP / Non-CPP), Test Set: CPP
57 | QQPFVQQQQPFVQQ | Non-CPP | 
58 | KLALKALKAALKPA | Non-CPP | 
59 | AGCKNFFWKMFTSC | Non-CPP | 
60 | NYRWRCKNQ |  | class (CPP / Non-CPP), Test Set: CPP
61 | MIEMAM |  | class (CPP / Non-CPP), Test Set: Non-CPP
62 | LLATTALLKTTALLKTTA | Non-CPP | 
63 | FLSFLLGPLIDLISKG | Non-CPP | 
64 | HTPGNSNKWKHLQENKKGRPRR | CPP | 
65 | RLRLRLRLRLRLRLRLKLLKLLKLLKLLKKKKKKKGYK | CPP | 
66 | NWVTMKDSADSIDHECPRYFDTCERSCKISE | Non-CPP | 
67 | NSDMAHERKFMWQYNR | Non-CPP | 
68 | FLGVVFKLASKVFPAVFGKV | Non-CPP | 
69 | LSNTLAELYVREHLR | Non-CPP | 
70 | RQIKIWFQNRRMKWKKGG | CPP | 
71 | FGCKNFFWKTFTSC | Non-CPP | 
72 | MEPLWWANYDNTQ |  | class (CPP / Non-CPP), Test Set: Non-CPP
73 | GWTNLSAQYLLGPPPGFSPFR | Non-CPP | 
74 | KRKKKGKGLGKKRDPCLRKYK | CPP | 
